ChEMBL document CHEMBL1150786, “Relationship of blood level and susceptibility in voriconazole treatment of histoplasmosis” (2007)
In brackets after ≈: the same amount, converted by molar mass.

Tests used:
Histoplasma capsulatum [1] = experiment: Antimicrobial activity against Histoplasma capsulatum isolates form AIDS patient with primary histoplasmosis by modified CLSI method; type: functional
Histoplasma capsulatum [2] = experiment: Antimicrobial activity against Histoplasma capsulatum isolates form AIDS patient with relapsed histoplasmosis by modified CLSI method; type: functional

C[C@@H](c1ncncc1F)[C@](O)(Cn1cncn1)c1ccc(F)cc1F [VORICONAZOLE]
MIC (Histoplasma capsulatum [1]): 0.015 mg/L (≈ 0.0429 µM) | MIC (Histoplasma capsulatum [2]): 0.03 mg/L (≈ 0.0859 µM)
